Measurements reported in US8703224B2, “Method to improve water solubility of Rebaudioside D” (PepsiCo, Inc., priority 2009, dated 2014).

Tests used:
[1] = cited from earlier work
[2] = Differential Scanning calorimetry (DSC); details: 40°-300° C., heating at 10° C./min
[3] = Water solubility experiment, anhydrous versus non-anhydrous form, solubility versus temperature; format: physicochemical; details: after cooling to room temperature and sitting on a bench-top overnight
Method: Equal starting amounts of both substances were placed in equal volumes of water in side-by-side beakers equipped with overhead stirrers and hot plates. As the temperature of the water solution increased and the starting amounts were dissolved, incremental quantities of additional respective sweetener were added.

[4] = Oven heating for two hours, mass loss and HPLC check for decomposition; format: physicochemical; details: for Net Loss (weight %) / Net Loss: oven, two hours; for Net Loss: 50 g sample
Method: An experiment was performed on four samples (50 g each) of commercially available Reb D. The samples were each heated in an oven for two hours at one of four temperatures: 70°, 80°, 90° and 100° C. The samples were then immediately cooled and weighed to determine any loss in mass. Each sample, including the initial sample, was analyzed using gradient reversed-phase High Performance Liquid Chromatography (HPLC) with Evaporative Light Scattering Detection (ELSD) and Ultra-Violet (UV) detection methods to determine if any significant decomposition occurred.

[5] = Thermal Gravimetric Analysis (TGA); format: physicochemical; details: 2 mg sample, 10° C./min
Method: In a complementary experiment, commercially available Reb D was examined by Thermal Gravimetric Analysis (TGA). TGA is a type of test that may be performed to determine changes in weight as a function of temperature. The method may be used to determine loss of water, or any other volatiles in a compound as it is heated. A derivative weight loss curve can be used to determine at what temperature weight loss is most apparent. A 2 mg sample was placed into a sample boat on a microgram balance (accurate to +/−1 μg) and heated while monitoring the mass. The temperature was increased at 10° C./min while continuing to monitor the mass and graphing the result as a percentage of the original mass. The results from this analysis are shown in FIG. 2 and indicate mass loss beginning at about 50° C. and continuing to about 104° C. and then remaining stable until reaching approximately 260° C., whereupon a large loss of mass was recorded, which corresponds to the decomposition temperature.

[6] = Dissolution in water with heating, then cooling to room temperature (stable solution test); format: physicochemical
Method: In at least certain exemplary embodiments, such supersaturated aqueous solution has a stable solution of Reb D at a concentration greater than 500 ppm, e.g., 1500 ppm or 3000 ppm. As used here and in the appended claims, a “stable solution” is defined as a solution prepared and stored according to the methods described here where the Reb D remains in solution for a period of time of at least 24 hours at room temperature without forming a precipitate.

[7] = HPLC (ELSD/UV) analysis after heating at 100° C. for 120 hours; format: physicochemical; details: after heating 120 hours at 100° C.
Method: It was discovered that upon heating commercially available Reb D, believed to be a non-anhydrous form of Reb D (i.e., hydrate), compound in an oven to a temperature of 100° C. for 120 hours, a thermally stable anhydrous Reb D product was obtained. […] The top graph indicates ELSD detection, and the bottom graph indicates UV detection results taken at a wavelength of 210 nm.
Additional HPLC chromatogram analysis was performed using both an anhydrous sample of Reb D (i.e., after the sample had undergone the process of heating for 120 hours at 100° C.) and a sample that had undergone heating for 24 hours. […] A decomposition peak estimated to be in the range of 2% of the total mass was found in the analysis results from the anhydrous Reb D sample, but its structure was not determined.

C=C1C[C@@]23CC[C@H]4[C@@](C)(CCC[C@@]4(C)C(=O)O[C@@H]4O[C@H](CO)[C@@H](O)[C@H](O)[C@H]4O)[C@@H]2CC[C@]1(O[C@@H]1O[C@H](CO)[C@@H](O)[C@H](O[C@@H]2O[C@H](CO)[C@@H](O)[C@H](O)[C@H]2O)[C@H]1O[C@@H]1O[C@H](CO)[C@@H](O)[C@H](O)[C@H]1O)C3 [Reb A, Rebaudioside A]
solubility in aqueous solution ([1]; room temperature): at least 3000 ppm

C=C1C[C@@]23CC[C@H]4[C@@](C)(CCC[C@@]4(C)C(=O)O[C@@H]4O[C@H](CO)[C@@H](O)[C@H](O)[C@H]4O[C@@H]4O[C@H](CO)[C@@H](O)[C@H](O)[C@H]4O)[C@@H]2CC[C@]1(O[C@@H]1O[C@H](CO)[C@@H](O)[C@H](O[C@@H]2O[C@H](CO)[C@@H](O)[C@H](O)[C@H]2O)[C@H]1O[C@@H]1O[C@H](CO)[C@@H](O)[C@H](O)[C@H]1O)C3 [Reb D, Rebaudioside D]
temperature of apparent decomposition (large endothermic event) [2]: about 260 °C | appearance of water solution ([3]; listed as Reb D hydrate): full of precipitate | decomposition by HPLC ([4]; after two hours at 70°, 80°, 90° and 100° C.): little to no decomposition | Net Loss (weight %) ([4]; 70° C.): 0.38 weight % | Net Loss ([4]; 70° C.): 0.19 g | Net Loss (weight %) ([4]; 80° C.): 0.48 weight % | Net Loss ([4]; 80° C.): 0.24 g | Net Loss (weight %) ([4]; 90° C.): 0.76 weight % | Net Loss ([4]; 90° C.): 0.38 g | Net Loss (weight %) ([4]; 100° C.): 1.36 weight % | Net Loss ([4]; 100° C.): 0.68 g | decomposition temperature (large loss of mass) [5]: approximately 260 °C | precipitation after cooling ([6]; dissolved in water with heating and allowed to cool): precipitating out of solution within a number of hours | behaviour of heated solution upon cooling (cooled to room temperature (e.g., 25° C.)): precipitates back out of solution within a few hours | stable solubility in aqueous solution (room temperature): no more than 450 ppm

C=C1C[C@@]23CC[C@H]4[C@@](C)(CCC[C@@]4(C)C(=O)O[C@@H]4O[C@H](CO)[C@@H](O)[C@H](O)[C@H]4O)[C@@H]2CC[C@]1(O[C@@H]1O[C@H](CO)[C@@H](O)[C@H](O)[C@H]1O[C@@H]1O[C@H](CO)[C@@H](O)[C@H](O)[C@H]1O)C3 [Stevioside]
solubility in water ([1]; in words): only sparingly soluble in water

C=C1C[C@@]23CC[C@H]4[C@@](C)(CCC[C@@]4(C)C(=O)O[C@@H]4O[C@H](CO)[C@@H](O)[C@H](O)[C@H]4O[C@@H]4O[C@H](CO)[C@@H](O)[C@H](O)[C@H]4O)[C@@H]2CC[C@]1(O[C@@H]1O[C@H](CO)[C@@H](O)[C@H](O[C@@H]2O[C@H](CO)[C@@H](O)[C@H](O)[C@H]2O)[C@H]1O[C@@H]1O[C@H](CO)[C@@H](O)[C@H](O)[C@H]1O)C3 [anhydrous Reb D, Rebaudioside D]
decomposition by HPLC retention values [7]: no significant level of decomposition | impurity at the 14.1 minute elution mark ([7]; FIG. 6): about 5 % of the total mass | decomposition peak ([7]; FIG. 7): ~2 % of the total mass | appearance of water solution [3]: stayed as a clear solution | time at room temperature with no precipitating out of solution ([6]; 3000 ppm solution after cooling): at least 24 hours | solution concentration ([6]; dissolved in water with heating, cooled to room temperature): 3000 ppm
